Assay results published in patent US20200268864A1, “CANCER VACCINE COMPOSITIONS AND METHODS FOR USING SAME TO TREAT CANCER” (Dana-Farber Cancer Institute, Inc., priority 2017, published 2020).
“Also recorded” adds a separate entry of the source.

What was measured:
[1] = test system: PPM tumors (Trp53−/−; Pten−/−; c-Myc); experiment: Orthotopic PPM tumor growth (bioluminescence); details: mouse, in vivo
Description: All animal experiments described in this study were performed according to the animal protocols approved by the DFCI Institutional Animal Care and Use Committee. Brca1^loxP/loxP [FVB/N] mice, bearing loxP sites in introns 4 and 13 of the Brca1 gene, and Trp53^loxP/loxP[FVB/N] mice bearing loxP in introns 2 and 10 of the p53 gene, were obtained from Dr. Jos Jonkers's laboratory (Netherlands Cancer Institute, Amsterdam, The Netherlands). These mice were intercrossed through multiple generations to create a colony of homozygous Trp53^loxP/loxP/Brca1^loxP/loxP double conditional knockout mice. Ovaries were harvested from 8-week-old female Trp53^loxP/loxP/Brca1^loxP/loxP mice. The ovaries were washed twice with phosphate-buffered and incubated in DMEM/F12 (Ham's) medium containing collagenase and dispase (stem cell technologies) for 40 min at 37° C. […]
Single cells were obtained by digestion of primary ovarian tumors in collagenase buffer and then cultured in MOT media (DMEM/F12, 0.6% FBS, 10 ng/ml EGF, hydrocortisone 1 μg/ml, cholera toxin 1 ng/ml, 100 μg/ml penicillin-streptomycin, 5 μM Y27632). […] The endpoints were determined by tumor burden and ascites. […]

[2] = test system: PBM tumor-bearing mice; experiment: Cytokine array of plasma/sera; assay type: in vivo, mouse; details: day 2 of treatment
Description: Blood was obtained by retro-orbital sampling at intermediate time points or experimental end points. Blood cells and plasma/sera were separated by centrifugation at 1,500×g for 5 min. at 4° C. Plasmaisera were sent out to Eve Technologies for cytokine array analysis (Chemokine Array 31-Plex and Mouse Procarta IFN 2-plex Featured Assay). Plasma/sera were applied to ELISA according to manufacturer's instructions. For in vitro experiments, cell culture supernatants were obtained by centrifugation at 1,500×g for 5 min. at 4° C. to remove all debris and cells, and were then subjected to ELISA analysis. IFN-β was detected using the LEGEND MAX™ Mouse IFN-β ELISA Kit (BioLegend).

[3] = test system: PBM tumor tissues; experiment: Gene Set Enrichment Analysis of PBM tumor tissues; assay type: in vivo, mouse; details: 18 days of treatment, vs vehicle; panel of 4604 genes
Description: RNA was isolated from tumor samples as described above, sequenced on the ion Torrent platform per manufacturer's instructions using a custom AmpliSeq panel targeting 4604 murine genes relevant to our studies, and raw data was processed using the Torrent Suite and AmpliSeqRNA plugin to give read counts per gene. Differential gene expression analyses were carried out using DESeq2 with default parameters to obtain log 2 fold change (MAP) and adjusted p-values (Benjamini-Hochberg procedure) (Love et al. (2014) Genorme Biol. 15:550). Genes were ranked by log 2 fold change (MAP), and GSEA were carried out using the GSEAPreranked tool (Mootha et al. (2003) Nat. Genet. 34:267-273; Subramanian et al. (2005) Proc. Natl. Acad. Sci. USA 102:15545-15550). PCA were carried out using DESeq2.

[4] = test system: PBM cells; experiment: Cell death of PBM cells in culture; assay type: cell-based, mouse; details: 2.5 uM for 24 hours

## O=C(c1cc(Cc2n[nH]c(=O)c3ccccc23)ccc1F)N1CCN(C(=O)C2CC2)CC1 [olaparib, Olaparib]
[1]
  progression of Brca-proficient PPM tumors: little effect and not
[2]
  plasma/sera cytokine levels (CXCL9, CXCL10, IFNβ and others): significant increase; also recorded: increased levels of multiple cytokines
[2]; listed as Olaparib
  plasma/sera cytokine levels (CXCL9, CXCL10, IFNβ and others): changes on the levels of various cytokines
[3]
  GSEA: expression of immune-related gene sets: markedly upregulated expression of genes associated with immune response, T-cell activation and interferon-γ (IFNγ) response
[4]
  cell death in PBM cells: did not induce substantial cell death
